From patent publication US20220193447A1, “METHODS FOR MODULATION OF AND SENSITIZATION TO SERINE AND GLYCINE LIMITATION” (Faeth Therapeutics, Inc., priority 2020, published 2022) come the findings set out here.

One experiment concerns KPC cells. As to the kind of experiment: KPC cell proliferation with or without serine. It is filed as cell-based, mouse. Conditions: epacadostat 1 μM, −Serine medium, 5 days. Here is the method: KPC cells (tumor cells derived from a pancreatic tumor of a Kras' p53″^t genetically engineered mouse) were seeded into 24-well plates and allowed to adhere overnight. […] Cell number was recorded every 24 h for 5 days. A time zero plate was used to calculate the starting cell number.

Experiment [1] has as its system IDO1 expression. Nature of the experiment: Immunoblotting of IDO1 in human pancreatic cancer cells. Type of experiment: cell-based. Conditions: for IDO1 protein levels: 2D or 3D culture, MG132 20 μM 16 h, bafilomycin A1 100 nM.
Another experiment concerns ATF-4 response. As to the kind of experiment: Western blots of SSP enzymes and ATF-4 response. Type of experiment: cell-based, human. Conditions: MG-132 10 μM. Here is the method:
Protein lysates were processed in RIPA-buffer supplemented with phosphatase inhibitor cocktail and complete protease inhibitors. Lysates were separated using precast NuPAGE 4-12% Bis-Tris Protein gels and transferred to nitrocellulose membranes. Following incubation with primary antibodies, appropriate secondary antibodies were used to detect the proteins. Westerns scanned using the Odyssey CLx or visualized using ECL chemiluminescence detection kits.
Cells were grown for 24 hours in −SG medium or CM and treated with 10 μM PH755 diluted in DMSO or DMSO alone. To evaluate protein synthesis, puromycin (final concentration: 90 μM) was added to each well 10 minutes prior harvesting the cells for western blot analysis, except in the negative control well. Where indicated, cells grown in CM medium were treated with cycloheximide (10 μg/mL) for the last 5 hours providing a control for translation inhibition. Incorporation of puromycin into newly synthesized proteins was assessed by Western blot using an anti-puromycin antibody. To assess the accumulation of short-lived proteins in response to proteasome inhibition, cells grown in −SG medium or CM plus or minus 10 μM PH755 for 24 hours were treated for the last 6 hours with the proteasome inhibitor MG-132 (10 μM) before harvesting the cells for western blot analysis.

Another experiment concerns HT-29 and HCT116 cells. Conditions: supplement alone (1 mM sodium formate or 0.4 mM glycine).
For experiment [2], the system named is IDO1 expression. Nature of the experiment: Immunoblotting of IDO1 in KPC cells. Type of experiment: cell-based, mouse.

Where a SMILES comes first, the peptide text is derived from it. The star is where a group is joined. Cbz = O=C(OCc1ccccc1)*

Description for HT-29 and HCT116 cells: Cells (2×10^4 to 3×10^4 cells/well depending on the cell lines) were plated in 24-well plates in their regular medium. […] For the counting step, cells were trypsinized, suspended in PBS-EDTA, and counted with a CASY Model TT Cell Counter. Relative cell number at each time point was calculated based on the number of cells measured before the medium change.

As for `NS(=O)(=O)NCCNc1nonc1C(=NO)Nc1ccc(F)c(Br)c1` [epacadostat], the “antiproliferative effect of serine starvation” value in the experiment with KPC cells was “enhances the antiproliferative effect”.

As to `CC(C)(C)c1nc2c3cc[nH]c(=O)c3c3cc(F)ccc3c2[nH]1` [JAKi], the “up-regulation of IDO1 protein levels in AI-grown cells” value in the experiment on IDO1 expression [1] (CFPAC-1 or HPAF-II cells, JAKi 1 μM, 16 h) was “blocked”.

As to `CC(C)C[C@@H](C=O)NC(=O)[C@H](CC(C)C)NC(=O)[C@H](CC(C)C)NC(=O)OCc1ccccc1` [MG-132] (Cbz-Leu-Leu-Leu-aldehyde), in the experiment on IDO1 expression [1], the IDO1 protein levels entry is recorded as “no effect on IDO1 protein levels”. Also, the ATF-4 protein level result with ATF-4 response (cells in complete medium) is listed as “strong accumulation of ATF-4”. Also, the “ATF-4 protein levels and ASNS, PSAT expression” value with ATF-4 response (cells in −SG medium plus PH755) is listed as “no restoration of ATF-4 protein levels”.

Turning to `O=C[O-].[Na+]` [formate, sodium formate], the “growth of −SG plus PH755 treated cells” value in the experiment on HT-29 and HCT116 cells is on record as “did not restore growth”.

For the molecule “human form of IFNγ: human cytokine IFNγ, canonical activator of IDO1”, the IDO1 expression result in the experiment with IDO1 expression [2] (murine cells, human form of IFNγ) was “did not impact IDO1 expression in murine cells”; with IDO1 expression [1] (panel of human pancreatic cancer cells, IFNγ 1 ng/ml, 24 h) it was “consistently increased IDO1 expression”.

`CO/C1=C\C(C)=C\[C@@H](C)[C@@H](O)[C@@H](C)C/C(C)=C/C=C/[C@H](OC)[C@@H]([C@@H](C)[C@@H](O)[C@H](C)[C@@]2(O)C[C@@H](O)[C@H](C)[C@@H](C(C)C)O2)OC1=O` [bafilomycin, bafilomycin A1]: the IDO1 protein levels result in the experiment on IDO1 expression [1] is “no effect on IDO1 protein levels”.

Turning to `NCC(=O)O` [glycine], the “growth of −SG plus PH755 treated cells” value in the experiment with HT-29 and HCT116 cells is reported as “did not restore growth”.

B1: murine form of cytokine IFNγ: murine cytokine IFNγ, a canonical activator of IDO1 (protein, UniProt P01580 23-155, looked up)
Interferon gamma: HGTVIESLESLNNYFNSSGIDVEEKSLFLDIWRNWQKDGDMKILQSQIISFYLRLFEVLKDNQAISNNISVIESHLITTFFSNSKAKKDAFMSIAKFEVNNPQVQRQAFNELIRVVHQLLPESSLRKRKRSRC
In the case of B1, in the experiment with IDO1 expression [2] (KPC cells, murine IFNγ 1 ng/ml, 24 h), the IDO1 expression entry was “increased IDO1 expression in vitro”.
